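96-well plates; 48 h exposure; 5 concentrations. Endpoints by linear interpolation between flanking doses. Not reached: highest tested concentration assigned. GI50 = concentration required for 50% inhibition of growth.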 Active and inactive are the calls of the source. No stated cut-off is given here; in the data, active = GI50 up to about 1.1 µM and inactive = higher. *1 amine or outer side, *2 acyl side, *3 side chain or, on linkers, in order; H or OH if unused. Where a SMILES comes first, the peptide text is derived from it. [ ]: non-standard residue; d: D form. The star is where a group is joined. ξ: configuration not given here. X43 = CCC(=O)CC(O)CC(C)CC(N[*:1])C(=O)[*:2]; ξLeu(3ξ-OH) = CC(C)C(O)C(N)C(=O)O; ξPro(4ξ-Me) = CC1CNC(C(=O)O)C1; X42 = CCC(C)/C=C/C(=O)*; Aib = CC(C)(N)C(=O)O; X44 = CC(CN(C)C)N*; βAla = NCCC(=O)O
Legend:
Experiment in all cases: NCI anticancer screen, dose series, 48 h
HOP-18 = tested on: HOP-18
DMS-114 = tested on: DMS-114
LXFL 529 = tested on: LXFL 529
XF498 = tested on: XF498
DLD-1 = tested on: DLD-1
MCF7 = tested on: MCF7
DMS-273 = tested on: DMS-273
M19-MEL = tested on: M19-MEL
RXF 631 = tested on: RXF 631

COC(=O)/C(C#N)=C1\CCC(Nc2cccc(C(F)(F)F)c2)N1C (stereo unspecified)
GI50 (HOP-18): > 100 µM (inactive) | GI50 (DMS-114): > 10 µM (inactive) | GI50 (LXFL 529): 74 µM (inactive) | GI50 (XF498): 66.2 µM (inactive) | GI50 (DLD-1): 57.5 µM (inactive)

O=C(/C(=C\c1ccc(Cl)cc1)c1ccccc1)c1ccccc1
GI50 (HOP-18): > 100 µM (inactive) | GI50 (DMS-114): 21.4 µM (inactive) | GI50 (LXFL 529): 55.5 µM (inactive) | GI50 (XF498): 37.6 µM (inactive) | GI50 (DLD-1): 93.5 µM (inactive)

C[C@H]1CC(=O)C[C@@H]2CC[C@@H]3[C@H](CC[C@]4(C)C(OC(=O)c5cccc6c(=O)c7ccccc7[nH]c56)CC[C@@H]34)[C@]21C (stereo partly specified)
GI50 (MCF7): 62.5 µM (inactive)

COc1c(C)cc2c(c1O)C1C3[C@H]4SC[C@@]5(NCCC6=C5NC5C=CC=CC65)C(=O)OCC(c5c6c(c(C)c(OC(C)=O)c54)OCO6)N3[C@@H](O)C(C2)N1C (stereo partly specified)
GI50 (DMS-273): < 0.01 µM (active) | GI50 (DMS-114): < 0.01 µM (active) | GI50 (LXFL 529): < 0.01 µM (active) | GI50 (XF498): < 0.01 µM (active) | GI50 (M19-MEL): < 0.01 µM (active) | GI50 (DLD-1): < 0.01 µM (active)

NC1=NS(=O)(=O)Nc2nc(-c3ccc([N+](=O)[O-])cc3)[nH]c21
GI50 (DMS-273): > 100 µM (inactive) | GI50 (HOP-18): > 100 µM (inactive) | GI50 (DMS-114): > 100 µM (inactive) | GI50 (LXFL 529): > 100 µM (inactive) | GI50 (M19-MEL): > 100 µM (inactive) | GI50 (DLD-1): > 100 µM (inactive)

Clc1ccc(/C=C/c2nc(-c3ccc(Cl)cc3)cn3c2nc2ccccc23)cc1
GI50 (MCF7): 50.5 µM (inactive)

C[C@]12C[C@@H](c3ccccc3)Nc3ccccc3N1C(c1ccccc1)=NO2
GI50 (MCF7): 31 µM (inactive)

O=S1(=O)N=C(SCc2c[nH]c3ccccc23)N(c2ccccc2)c2ccncc21
GI50 (MCF7): 42.5 µM (inactive)

C[C@]12CCC3c4ccc(O)cc4CC[C@H]3C1CC(=O)N(CCN1CCCC1)C2=O (stereo partly specified)
GI50 (MCF7): > 10 µM (inactive)

NC(CSSCC(N)Cc1ccccc1)Cc1ccccc1 (stereo unspecified)
GI50 (DMS-273): > 10 µM (inactive) | GI50 (DMS-114): 39.2 µM (inactive) | GI50 (LXFL 529): 36.1 µM (inactive) | GI50 (XF498): 27.1 µM (inactive) | GI50 (M19-MEL): 49 µM (inactive) | GI50 (DLD-1): 49.5 µM (inactive)

CCCCCCC(=O)OC[n+]1ccc2c(C)c3[nH]c4ccccc4c3c(C)c2c1
GI50 (RXF 631): 2.54 µM (inactive) | GI50 (DMS-273): 0.106 µM (active) | GI50 (DMS-114): 1.08 µM (active) | GI50 (LXFL 529): 0.785 µM (active) | GI50 (M19-MEL): 1.04 µM (active) | GI50 (DLD-1): 0.4 µM (active)

CC(C)Cc1c(C#N)c(C#N)c(N)n1Cc1ccccc1
GI50 (MCF7): > 100 µM (inactive)

COc1cccc2c(NNc3ccc(Cl)cc3)c3ccc([N+](=O)[O-])cc3nc12
GI50 (MCF7): 19.2 µM (inactive)

OC(C#CCN1CCCC1)(c1ccccc1)c1ccccc1Cl (stereo unspecified)
GI50 (MCF7): 17.9 µM (inactive)

c1ccc(/N=C2\c3ccccc3CN2c2ccccc2)cc1
GI50 (MCF7): > 100 µM (inactive)

CCOC1=NC(=O)CC(c2ccccc2)S1 (stereo unspecified)
GI50 (DMS-273): > 100 µM (inactive) | GI50 (LXFL 529): > 100 µM (inactive) | GI50 (XF498): > 100 µM (inactive) | GI50 (M19-MEL): > 100 µM (inactive) | GI50 (DLD-1): 95.5 µM (inactive)

O=C(NO)C12C3C4C1C1C2C3C41C(=O)NO (stereo unspecified)
GI50 (DMS-273): > 100 µM (inactive) | GI50 (HOP-18): > 100 µM (inactive) | GI50 (DMS-114): > 100 µM (inactive) | GI50 (LXFL 529): 37.2 µM (inactive) | GI50 (M19-MEL): > 100 µM (inactive) | GI50 (DLD-1): > 100 µM (inactive)

CCC[C@H](O)[C@@H](CNc1cc(NC(C)=O)nc(NC(C)=O)n1)N(Cc1ccccc1)Cc1ccccc1
GI50 (MCF7): 8.79 µM (inactive)

CC[C@@]1(O)CC(OC2CC(N3CCOCC3)C(O)C(C)O2)c2c(O)c3c(c(O)c2[C@H]1O)C(=O)c1cccc(O)c1C3=O (stereo partly specified)
GI50 (DMS-273): 0.0358 µM (active) | GI50 (HOP-18): 0.237 µM (active) | GI50 (MCF7): 0.0293 µM (active) | GI50 (DMS-114): 0.0935 µM (active) | GI50 (XF498): 0.0493 µM (active) | GI50 (M19-MEL): 0.101 µM (active) | GI50 (DLD-1): 0.143 µM (active)

C[C@@H](NC1CCC[C@@H]1O)c1ccccc1 (stereo partly specified)
GI50 (DMS-273): > 100 µM (inactive) | GI50 (HOP-18): > 100 µM (inactive) | GI50 (DMS-114): > 100 µM (inactive) | GI50 (LXFL 529): > 100 µM (inactive) | GI50 (XF498): > 100 µM (inactive) | GI50 (M19-MEL): > 100 µM (inactive) | GI50 (DLD-1): > 100 µM (inactive)

CCCCCCCCCC(=O)NC(Cc1ccc(O)cc1)C(=O)NCCCNCCCCNCCCNC(=O)[C@@H](N)CCCN=C(N)N (stereo partly specified)
GI50 (DMS-273): 20.9 µM (inactive) | GI50 (DMS-114): 61.8 µM (inactive) | GI50 (LXFL 529): 77.3 µM (inactive) | GI50 (XF498): > 100 µM (inactive) | GI50 (M19-MEL): 50.2 µM (inactive)

COC1(OC)C[C@H](C)[C@@]23O[C@]24C2=CC(=O)C=CC2=N[C@H]3C#C/C=C\C#C[C@]14O
GI50 (MCF7): 0.276 µM (active)

CSc1c([S+](C)[O-])[nH]c2cc(Br)cc(Br)c12 (stereo unspecified)
GI50 (DMS-273): 16.4 µM (inactive) | GI50 (HOP-18): 39.5 µM (inactive) | GI50 (LXFL 529): 21.1 µM (inactive) | GI50 (M19-MEL): 29.2 µM (inactive) | GI50 (DLD-1): 16.5 µM (inactive)

CCC(=O)CC(O)CC(C)CC(NC(=O)C1CC(C)CN1C(=O)/C=C/C(C)CC)C(=O)NC(C(=O)NC(C)(C)C(=O)NC(CC(C)C)C(=O)NC(CC(C)C)C(=O)NC(C)(C)C(=O)NC(C)(C)C(=O)NCCC(=O)NC(C)CN(C)C)C(O)C(C)C (stereo unspecified) (X42-[ξPro(4ξ-Me)][X43][ξLeu(3ξ-OH)][Aib]LL[Aib][Aib][βAla]-X44; configuration not given here)
GI50 (MCF7): < 0.005 µM (active)

— ChEMBL document CHEMBL1201862, “PubChem BioAssay data set” (2004)
